# Test results published in ChEMBL document CHEMBL1139186, “Design and evaluation of 'Linkerless' hydroxamic acids as selective HDAC8 inhibitors” (Bioorg Med Chem Lett, 2007).
# Calls of active or inactive are those of the source. The calls are words filed in the database; no cut-off is given here.
# What was measured:
# Histone deacetylase 8 = biological target: T1, Histone deacetylase 8 (Homo sapiens, UniProt Q9BY41)
# T1 sequence (Q9BY41 whole entry): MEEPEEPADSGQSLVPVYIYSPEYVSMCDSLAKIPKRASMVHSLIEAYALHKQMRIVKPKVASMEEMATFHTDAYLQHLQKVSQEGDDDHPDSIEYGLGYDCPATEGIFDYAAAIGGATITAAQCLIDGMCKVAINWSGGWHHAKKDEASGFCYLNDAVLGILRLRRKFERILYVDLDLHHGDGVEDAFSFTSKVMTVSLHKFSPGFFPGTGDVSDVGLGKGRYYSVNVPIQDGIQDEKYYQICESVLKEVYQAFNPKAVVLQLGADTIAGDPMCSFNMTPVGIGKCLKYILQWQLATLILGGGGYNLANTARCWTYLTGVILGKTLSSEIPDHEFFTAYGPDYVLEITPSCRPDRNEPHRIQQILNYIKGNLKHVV
# Description: Inhibition of human HDAC8 by [3H]acetyl histone peptide assay
# [1] = biological target: T2, Protein deacetylase HDAC6 (Homo sapiens, UniProt Q9UBN7); assay: Inhibition of human HDAC6 by [3H]acetyl histone peptide assay
# T2 sequence (Q9UBN7 whole entry): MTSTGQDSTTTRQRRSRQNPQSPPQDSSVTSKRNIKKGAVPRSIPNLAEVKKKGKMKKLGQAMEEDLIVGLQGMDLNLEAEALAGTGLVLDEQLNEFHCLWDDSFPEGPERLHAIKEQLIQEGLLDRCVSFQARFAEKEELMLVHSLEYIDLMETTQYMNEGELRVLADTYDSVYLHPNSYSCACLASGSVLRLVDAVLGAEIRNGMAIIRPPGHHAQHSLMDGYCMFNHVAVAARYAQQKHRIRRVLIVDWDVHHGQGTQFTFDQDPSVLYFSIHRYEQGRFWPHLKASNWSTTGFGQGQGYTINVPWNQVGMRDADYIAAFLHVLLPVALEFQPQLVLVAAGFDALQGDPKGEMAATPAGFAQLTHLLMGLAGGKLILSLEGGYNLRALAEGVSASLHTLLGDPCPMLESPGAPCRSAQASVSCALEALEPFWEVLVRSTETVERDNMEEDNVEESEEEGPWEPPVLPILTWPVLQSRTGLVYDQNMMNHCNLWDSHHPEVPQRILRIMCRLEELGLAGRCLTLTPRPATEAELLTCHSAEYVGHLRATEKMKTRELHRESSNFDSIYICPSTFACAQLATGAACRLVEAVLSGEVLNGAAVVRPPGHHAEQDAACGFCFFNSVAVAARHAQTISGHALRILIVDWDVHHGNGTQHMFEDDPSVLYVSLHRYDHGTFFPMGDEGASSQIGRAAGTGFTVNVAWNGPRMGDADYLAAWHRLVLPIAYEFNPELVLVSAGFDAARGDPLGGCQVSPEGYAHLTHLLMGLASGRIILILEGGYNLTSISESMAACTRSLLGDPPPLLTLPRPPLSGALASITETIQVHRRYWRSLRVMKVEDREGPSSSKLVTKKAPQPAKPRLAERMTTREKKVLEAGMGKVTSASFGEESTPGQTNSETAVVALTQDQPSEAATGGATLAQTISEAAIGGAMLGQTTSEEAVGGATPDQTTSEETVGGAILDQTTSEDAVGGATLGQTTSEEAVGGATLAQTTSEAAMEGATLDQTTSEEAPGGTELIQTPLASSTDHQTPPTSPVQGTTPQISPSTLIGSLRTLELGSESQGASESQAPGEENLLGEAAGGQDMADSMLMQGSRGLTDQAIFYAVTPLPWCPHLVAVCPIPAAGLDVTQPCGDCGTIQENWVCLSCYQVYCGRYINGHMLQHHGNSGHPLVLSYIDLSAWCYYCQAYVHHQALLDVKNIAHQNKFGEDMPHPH
# Histone deacetylase 1 = Histone deacetylase 1 (Homo sapiens, UniProt Q13547); assay: Inhibition of human HDAC1 by [3H]acetyl histone peptide assay
# HEK293 [2] = assay: Increase in lysine-acetylated histone H4 levels in HEK293 cells by Western blot; assay type: functional, cell-based; settings: Homo sapiens
# HeLa [3] = assay: Increase in lysine-acetylated histone H4 levels in HeLa cells by Western blot; assay type: functional, cell-based; settings: Homo sapiens
# HEK293 [4] = assay: Increase in lysine-acetylated tubulin levels in HEK293 cells by Western blot; assay type: functional, cell-based; settings: Homo sapiens
# HeLa [5] = assay: Increase in lysine-acetylated tubulin levels in HeLa cells by Western blot; assay type: functional, cell-based; settings: Homo sapiens
# Histone deacetylase 1, sequence (Q13547 whole entry): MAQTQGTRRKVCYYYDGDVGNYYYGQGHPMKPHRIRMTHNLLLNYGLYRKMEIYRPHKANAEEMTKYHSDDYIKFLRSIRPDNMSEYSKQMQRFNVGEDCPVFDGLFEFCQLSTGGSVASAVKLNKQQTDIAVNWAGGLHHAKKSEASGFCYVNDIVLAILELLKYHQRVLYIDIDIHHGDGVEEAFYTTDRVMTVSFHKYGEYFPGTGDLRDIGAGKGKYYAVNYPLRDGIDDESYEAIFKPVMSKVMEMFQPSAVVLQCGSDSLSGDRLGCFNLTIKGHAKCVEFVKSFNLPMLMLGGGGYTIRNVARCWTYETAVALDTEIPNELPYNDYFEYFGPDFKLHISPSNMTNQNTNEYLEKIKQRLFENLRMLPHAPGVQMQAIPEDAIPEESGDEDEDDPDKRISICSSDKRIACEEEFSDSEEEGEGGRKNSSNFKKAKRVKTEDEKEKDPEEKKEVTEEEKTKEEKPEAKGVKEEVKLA
IC50 (Histone deacetylase 8),IC50 [1],IC50 (Histone deacetylase 1),Structure (SMILES),Activity (HEK293 [2]),Activity (HeLa [3]),Activity (HEK293 [4]),Activity (HeLa [5])
14 µM,> 100 µM,> 100 µM,O=C(NO)c1cccc2ccccc12,,,,
0.7 µM,82 µM,> 100 µM,O=C(/C=C/c1cccc2ccccc12)NO,Active,Active,Active,Active
6.6 µM,,,O=C(NO)c1cccc(Oc2ccccc2)c1,,,,
20 µM,> 100 µM,> 100 µM,O=C(NO)c1cccc(-c2ccccc2)c1,,,,

Structure (SMILES),IC50 (Histone deacetylase 8),IC50 [1],IC50 (Histone deacetylase 1),Activity (HEK293 [2]),Activity (HeLa [3]),Activity (HEK293 [4]),Activity (HeLa [5])
O=C(NO)c1ccc(-c2cccc3ccccc23)cc1,0.3 µM,55 µM,> 100 µM,,,,
